Assays:
[1] = parameters: method as in PMID 27646843; conditions: cited from earlier work
[2] = system: HDAC6 and HDAC1; parameters: method as in PMID 22262760; conditions: cited from earlier work
[3] = system: NZB/W F1 female mice; assay: Murine SLE model: kidney histopathology (H&E, PAS, Masson trichrome); assay type: in vivo, mouse; conditions: methylprednisolone 5 mg/kg/day
Description: (§1) Survival had been monitored until 42 weeks of age.
Kidneys were harvested from mice at the end of the study (at 43–44 weeks of age). For light microscopy, the tissues were fixed in 10% neutral buffered formalin, embedded in paraffin wax, sectioned at a thickness of 5 μm and stained with H&E (BBC Biochemical, Mount Vernon, WA, USA). Periodic acid/Schiff (PAS stain kit, BBC Biochemical) staining and Masson trichrome (BBC Biochemical) staining were used for the detection of […] and fibrosis, respectively. Inflammatory cell infiltration and mesangial proliferation were scored on a 4-point scale as 0 (none), 1+ (mild), 2+ (moderate), 3+ (moderate to severe) and 4+ (severe).

[4] = system: NZB/W F1 female mice; assay: Murine SLE model: cytokine levels in kidney extracts; assay type: in vivo, mouse; conditions: group P: methylprednisolone 5 mg/kg/day; at autopsy; mean ± SD; n = 13
Description: The kidneys were weighed and then transferred into dPBS (Welgene) supplemented with anti-protease Complete TM cocktail (Boehringer) using 12.5 μl of dPBS per milligram of wet weight tissue. Samples were homogenized twice using an Automill TK-AM5 freeze-crushing cell homogenizer (W 280 mm × D 390 mm × H 290 mm, Tokken Inc., Chiba, Japan) at 1,400 rpm for 90 seconds and then centrifuged at 16,000 × g for 15 min at 4 °C. The supernatants were collected and total protein concentrations were determined in the kidney extracts using a bicinchoninic acid (BCA) protein assay kit™ (Pierce). Total protein concentrations of the kidney extracts were adjusted to 2 mg/dl and used for the analysis of IFN-γ, IL-10, IL-15, IL-17, IL-1β, IL-4, IL-6, IP-10, MCP-1, CCL4, RANTES, TNF-α and sCD40L with Milliplex® MAP Kits (Millipore).

[5] = system: NZB/W F1 female mice; assay: Murine SLE model: survival, severe proteinuria, UP/C; assay type: in vivo, mouse; conditions: methylprednisolone 5 mg/kg/day i.p.
Description: as §1
During the experiments, urine protein levels had been measured every 2 weeks. Fresh urine was collected by performing abdominal massages. Urine protein was measured with the Coomassie Brilliant Blue method as described in our previous study. Urine creatinine was measured using a DRI-CHEM 3000 Colorimetric analyzer (Fujifilm, Tokyo, Japan) with the urine diluted in deionized water (1:100 dilution).

[6] = system: NZB/W F1 female mice; assay: Murine SLE model: BUN and anti-dsDNA antibody levels; assay type: in vivo, mouse; conditions: methylprednisolone 5 mg/kg/day
Description: as §1
Blood samples had been collected from mice under isoflurane anesthesia every 4 weeks (at 24, 28, 32, 36, 40 weeks of age and autopsy), and the obtained serum samples had been kept at −70 °C until the analysis.

[7] = system: NZB/W F1 female mice; assay: Murine SLE model: serum chemistry and necropsy; conditions: group P: methylprednisolone 5 mg/kg/day; serum at autopsy; mean ± SD
Description: Control mice received 150 μL of vehicle (Ethanol: Kolliphor® EL: saline = 1:1:8) and were subjected to the same schedule. Survival rate and incidence of severe proteinuria (percent individual mice with urine protein ≥300 mg/dL) were calculated. Survival had been monitored until 42 weeks of age.

[8] = system: NZB/W F1 female mice; assay: Murine SLE model: flow cytometry of splenocytes; assay type: in vivo, mouse; conditions: methylprednisolone 5 mg/kg/day
Description: Single cell suspensions were obtained from the spleens of NZB/W F1 mice at autopsy (at 43–44 weeks of age). The splenocytes were stained with PerCP-Cy5.5-conjugated anti-mouse CD3e (PerCP-cy5.5-CD3e, eBioscience, San Diego, CA, USA), fluorescein isothiocyanate (FITC)-conjugated anti-mouse CD4 (FITC-CD4, BD Biosciences, San Jose, CA, USA), PE-cyanine7-conjugated anti-mouse CD8a (eBioscience), allo-phycocyanin (APC)-conjugated anti-mouse CD25 (BD Biosciences) and PE-conjugated anti-mouse CD138 (BD Biosciences).
T cell profile was analyzed as described previously; briefly, we examined proportions of Th1 cells (CD4^+CD25^+T-bet^+), Th2 cells (CD4^+CD25^+GATA-3^+), Th17 cells (CD4^+CD25^+ROR-γt^+), and Treg cells (CD4^+CD25^+Foxp3^+). To analyze T helper subsets, the splenocytes were stained with antibodies to CD4 and CD25 (FITC-conjugated anti-mouse CD4 and APC-conjugated anti-mouse CD25, BD Biosciences). Cells were fixed and permeabilized prior to staining with T-bet, GATA-3, ROR-γt and Foxp3 antibodies (PE-, BD Biosciences).

[9] = system: NZB/W F1 female mice; assay: Murine SLE model: serum cytokine levels (Milliplex); assay type: in vivo, mouse
Description: Serum samples were assayed using Milliplex® MAP Kits (Millipore) for granulocyte macrophage-colony stimulating factor (GM-CSF), interferon-γ (IFN-γ), interleukin-1α (IL-1α), IL-1β, IL-10, IL-12(p70), IL-15, IL-17a, IL-2, IL-4, IL-6, tumor necrosis factor α (TNF-α), transforming growth factor beta 1 (TGF-β1), IL-22, IL-23, IFN-inducible protein 10 (IP-10 (CXCL10)) and chemokine (C-C motif) ligand 2 (CCL2 (MCP-1)).

[10] = group P: methylprednisolone 5 mg/kg/day, at autopsy, mean ± SD, n = 13

O=C(CCCCCCNC(=O)c1cnc(N(c2ccccc2)c2ccccc2)nc1)NO [ACY-1215]
significant adverse effects reported in clinical trials [1]: grade 3 anemia and neutropenia
selectivity for HDAC6 and HDAC1 at IC50 [2]: 11 fold

C[C@H]1C[C@@H]2[C@H]([C@@H](O)C[C@@]3(C)[C@H]2CC[C@]3(O)C(=O)CO)[C@@]2(C)C=CC(=O)C=C12 [methylprednisolone, reference compound]
Degree of inflammatory cell infiltration in kidneys vs vehicle [3]: significantly lower
Kidney extract CCL2 [4]: 19.91 ± 11.71 pg/mL
Kidney extract CCL4 [4]: 0.60 ± 1.84 pg/mL
Kidney extract IFN-γ [4]: 16.91 ± 5.10 pg/mL
Kidney extract IL-1β [4]: 4.80 ± 2.85 pg/mL
Kidney extract IL-4 [4]: 0.06 ± 0.08 pg/mL
Kidney extract IL-6 [4]: 2.95 ± 0.59 pg/mL
Kidney extract IL-10 [4]: 12.14 ± 2.02 pg/mL
Kidney extract IL-15 [4]: 40.90 ± 9.01 pg/mL
Kidney extract IP-10 [4]: 50.64 ± 15.63 pg/mL
Kidney extract RANTES [4]: 9.77 ± 15.22 pg/mL
Kidney extract TNF-α [4]: 0.07 ± 0.24 pg/mL
Survival rate at the end of the study ([5]; 42-weeks of age): 93.3%
incidence of severe proteinuria (urine protein >300 mg/dl) ([5]; 42 weeks of age): 20%
Levels of BUN vs vehicle ([6]; 36 weeks of age): significantly lower
Levels of BUN vs vehicle ([6]; at autopsy): significantly lower
Ca [7]: 9.35 ± 0.53 mg/dL
ratio of CD4+CD8−/CD4−CD8+ T cells in spleen vs vehicle [8]: significantly lower
fewer CD4−CD8− cells compared with group vehicle ([8]; spleen): 4.3%
fewer CD138+ cells compared with group vehicle ([8]; spleen): 16.3%
Serum IFN-γ [9, 10]: 0.07 ± 0.24 pg/mL
Serum IL-1α [9, 10]: 666.21 ± 527.20 pg/mL
Serum IL-1β [9, 10]: 0.65 ± 2.34 pg/mL
Serum IL-2 [9, 10]: 0.09 ± 0.34 pg/mL
Serum IL-4 [9, 10]: 1.49 ± 0.20 pg/mL
Serum IL-6 [9, 10]: 3.36 ± 3.30 pg/mL
Serum IL-10 [9, 10]: 18.41 ± 12.97 pg/mL
Serum IL-12(70) [9, 10]: 1.04 ± 3.76 pg/mL
Serum IL-15 [9, 10]: 45.25 ± 14.91 pg/mL
Serum IL-17 [9, 10]: 3.59 ± 1.73 pg/mL
Serum IL-22 [9, 10]: 17.68 ± 16.19 pg/mL
Serum IL-23 [9, 10]: 22.31 ± 61.77 pg/mL
Serum TGF-β1 [9, 10]: 66067.78 ± 18777.09 pg/mL
Serum TNF-α [9, 10]: 1.57 ± 2.07 pg/mL
Mean serum levels of CCL2 vs vehicle ([9]; methylprednisolone 5 mg/kg/day, 36 weeks of age, difference not statistically significant): lower
